From patent publication EP0745595A1, “3-(3-Aryloxyphenyl)-1-(substituted methyl)-s-triazine-2,4,6-oxo or thiotrione herbicidal agents” (American Cyanamid Company, priority 1995, dated 1996)

Experiments:
Format in all cases: in vivo
CHENOPODIUM ALBUM, L. = assay: Postemergence herbicidal evaluation, CHEAL (Lambsquarters, Common)
Procedure, shortened: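 Seedlings of common lambsquarters (Chenopodium album) were raised in jiffy flats for roughly two weeks, then sprayed postemergence through a nozzle at 40 psi with test compound dispersed in 50/50 acetone/water containing 0.5% TWEEN®20 surfactant. Plants were kept on greenhouse benches under standard care and rated visually on a 0-9 scale versus controls.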

[1] = system: GLYCINE MAX(L) MERR. CV. WILLIAMS; assay: Postemergence herbicidal evaluation, GLXMAW (Soybean, Williams); design: key to GLXMAW rating / Herbicidal effect rating, GLXMAW / GLXMAW: 0-9 visual rating scale vs untreated control
Procedure, shortened: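 Soybean seedlings (Williams) were raised in jiffy flats for roughly two weeks, then sprayed postemergence through a nozzle at 40 psi with test compound dispersed in 50/50 acetone/water containing 0.5% TWEEN®20. Treated plants were kept on greenhouse benches under normal care and visually rated on a 0-9 scale four to five weeks later.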

[2] = system: ABUTILON THEOPHRASTI, MEDIC.; assay: Preemergence herbicidal evaluation, ABUTH (Velvetleaf); details: rated four to five weeks after treatment
Procedure, shortened: (§1)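 Seeds sown in potting soil cups, then sprayed preemergence with aqueous acetone compound solution at about 0.125 to 0.50 kg per hectare. Greenhouse-grown, rated 4–5 weeks after treatment on a 0–9 visual scale against control.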

[3] = system: AMBROSIA ARTEMISIIFOLIA, L.; assay: Preemergence herbicidal evaluation, AMBEL (Ragweed, Common); details: rated four to five weeks after treatment
Procedure, shortened: as §1

IPOMOEA SPP. = assay: Preemergence herbicidal evaluation, IPOSS (Morningglory spp.); details: rated four to five weeks after treatment
Procedure, shortened: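 Seeds of morningglory (Ipomoea spp.) were mixed with potting soil and sown on roughly one inch of soil in pint cups for a preemergence herbicide test. The cups were put on greenhouse benches, watered, and maintained by standard greenhouse practice. Four to five weeks after treatment each cup was scored visually on a 0-9 scale against a control.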

GALIUM APARINE = assay: Preemergence herbicidal evaluation, GALAP (Galium); details: rated four to five weeks after treatment
Procedure, shortened: as §1

[4] = system: ECHINOCHLOA CRUS-GALLI, (L) BEAU; assay: Preemergence herbicidal evaluation, ECHCG (Barnyardgrass); details: rated four to five weeks after treatment
Procedure, shortened: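 Barnyardgrass seeds were mixed with potting soil and planted on about one inch of soil in pint cups for preemergence testing. Treated cups were kept on greenhouse benches, watered and maintained by standard greenhouse practice. After four to five weeks, each cup was visually rated on a 0-9 scale against an untreated control.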

[5] = system: SETARIA VIRIDIS, (L) BEAU; assay: Preemergence herbicidal evaluation, SETVI (Foxtail, Green); details: rated four to five weeks after treatment
Description: Results of herbicide evaluation are expressed on a rating scale (0-9). The scale is based upon a visual observation of plant stand, vigor, malformation, size, chlorosis and overall plant appearance as compared with a control.
The preemergence herbicidal activity of the test compounds of the present invention is exemplified by the following tests in which the seeds of a variety of monocotyledonous and dicotyledonous plants are separately mixed with potting soil and planted on top of approximately one inch of soil in separate pint cups. […] The treated cups are then placed on greenhouse benches, watered and cared for in accordance with conventional greenhouse procedures. From four to five weeks after treatment, the tests are terminated and each cup is examined and rated according to the rating system provided in Example 40.
The compounds evaluated are reported by compound number given in Example 40.

[6] = system: GLYCINE MAX(L) MERR. CV. WILLIAMS; assay: Preemergence herbicidal evaluation, GLXMAW (Soybean, Williams); details: rated four to five weeks after treatment
Procedure, shortened: as §1

[7] = system: ORYZA SATIVA, L. TEBONNET; assay: Preemergence herbicidal evaluation, ORYSAT (Rice, Tebonnet); details: rated four to five weeks after treatment
Procedure, shortened: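 Seeds of rice (Oryza sativa, Tebonnet) were mixed with potting soil and sown on about one inch of soil in pint cups, then treated preemergence. Cups sat on greenhouse benches, watered and tended by standard greenhouse practice. Four to five weeks after treatment, plants were visually scored on a 0-9 scale relative to a control.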

[8] = system: TRITICUM AESTIVUM, CV. APOLLO; assay: Preemergence herbicidal evaluation, TRZAWO (Wheat, Winter, CV. APOLLO); details: rated four to five weeks after treatment
Procedure, shortened: as §1

ZEA MAYS L. = assay: Preemergence herbicidal evaluation, ZEAMX (Corn, Field); details: rated four to five weeks after treatment
Procedure, shortened: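 Corn (Zea mays) seeds were mixed with potting soil and planted on about one inch of soil in pint cups, then treated preemergence. Cups were kept on greenhouse benches, watered and maintained conventionally, and after four to five weeks were visually rated on a 0-9 scale versus an untreated control.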

[9] = system: CYPERUS SEROTINUS, ROTTB.; assay: Preemergence weed control under flooded paddy conditions, CYPSE (Flatsedge); details: preemergence, 3-4 weeks after treatment
Procedure, shortened: (§2)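 Flooded paddy preemergence test: seeds/propagating organs in top 0.5 cm silt loam, water held 1.5-3 cm above soil. Dosing by pipette into flood water, aqueous/acetone 50/50 v/v, ~0.5, 0.25, 0.125, 0.063 kg/ha a.i. Greenhouse; read at 3-4 wk, 0-9 visual scale.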

SAGITTARIA PYGMAEA, L. = assay: Preemergence weed control under flooded paddy conditions, SAGPY (Arrowhead (Pygmaea)); details: preemergence, 3-4 weeks after treatment
Procedure, shortened: as §2

[10] = system: ORYZA SATIVA, L. TEBONNET; assay: Rice tolerance to post-transplant applications under flooded paddy conditions, ORYSAT (Rice, Tebonnet); details: post-transplant rice, 3-4 weeks after treatment
Procedure, shortened: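 Post-transplant paddy test: compound applied 3 d after transplanting to flooded soil (1.5-3 cm water), ~0.063-0.5 kg/ha a.i., 50/50 aq/acetone. Silt loam, 2 × 10-d seedlings/pot. Greenhouse 3-4 wk, visual 0-9 score vs control.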

COC(=O)Cn1c(=O)n(C)c(=O)n(-c2cc(Oc3ccc([S+](C)[O-])cc3Cl)ccc2[N+](=O)[O-])c1=O (stereo not drawn) [Compound 36]
CHEAL rating (CHENOPODIUM ALBUM, L.; Rate 0.125 kg/ha): 8.0 | CHEAL rating (CHENOPODIUM ALBUM, L.; Rate 0.250 kg/ha): 8.0 | CHEAL rating (CHENOPODIUM ALBUM, L.; Rate 0.500 kg/ha): 8.0 | GLXMAW rating ([1]; Rate 0.125 kg/ha): 5.0 | GLXMAW rating ([1]; Rate 0.250 kg/ha): 5.0 | GLXMAW rating ([1]; Rate 0.500 kg/ha): 5.0 | ABUTH herbicidal rating ([2]; Rate 0.125 kg/ha): 0.0 | ABUTH herbicidal rating ([2]; Rate 0.250 kg/ha): 0.0 | ABUTH herbicidal rating ([2]; Rate 0.500 kg/ha): 0.0 | AMBEL herbicidal rating ([3]; Rate 0.125 kg/ha): 0.0 | AMBEL herbicidal rating ([3]; Rate 0.250 kg/ha): 0.0 | AMBEL herbicidal rating ([3]; Rate 0.500 kg/ha): 0.0 | IPOSS herbicidal rating (IPOMOEA SPP.; Rate 0.125 kg/ha): 0.0 | IPOSS herbicidal rating (IPOMOEA SPP.; Rate 0.250 kg/ha): 0.0 | IPOSS herbicidal rating (IPOMOEA SPP.; Rate 0.500 kg/ha): 0.0 | GALAP herbicidal rating (GALIUM APARINE; Rate 0.125 kg/ha): 0.0 | GALAP herbicidal rating (GALIUM APARINE; Rate 0.250 kg/ha): 0.0 | GALAP herbicidal rating (GALIUM APARINE; Rate 0.500 kg/ha): 0.0 | ECHCG herbicidal rating ([4]; Rate 0.125 kg/ha): 0.0 | ECHCG herbicidal rating ([4]; Rate 0.250 kg/ha): 0.0 | ECHCG herbicidal rating ([4]; Rate 0.500 kg/ha): 0.0 | SETVI herbicidal rating ([5]; Rate 0.125 kg/ha): 0.0 | SETVI herbicidal rating ([5]; Rate 0.250 kg/ha): 0.0 | SETVI herbicidal rating ([5]; Rate 0.500 kg/ha): 0.0 | GLXMAW herbicidal rating ([6]; Rate 0.125 kg/ha): 0.0 | GLXMAW herbicidal rating ([6]; Rate 0.250 kg/ha): 0.0 | GLXMAW herbicidal rating ([6]; Rate 0.500 kg/ha): 0.0 | ORYSAT herbicidal rating ([7]; Rate 0.125 kg/ha): 0.0 | ORYSAT herbicidal rating ([7]; Rate 0.250 kg/ha): 0.0 | ORYSAT herbicidal rating ([7]; Rate 0.500 kg/ha): 0.0 | TRZAWO herbicidal rating ([8]; Rate 0.125 kg/ha): 0.0 | TRZAWO herbicidal rating ([8]; Rate 0.250 kg/ha): 0.0 | TRZAWO herbicidal rating ([8]; Rate 0.500 kg/ha): 0.0 | ZEAMX herbicidal rating (ZEA MAYS L.; Rate 0.125 kg/ha): 0.0 | ZEAMX herbicidal rating (ZEA MAYS L.; Rate 0.250 kg/ha): 0.0 | ZEAMX herbicidal rating (ZEA MAYS L.; Rate 0.500 kg/ha): 0.0 | Herbicidal effect rating, CYPSE ([9]; 0.063 kg/ha): 0.0 | Herbicidal effect rating, CYPSE ([9]; 0.125 kg/ha): 0.0 | Herbicidal effect rating, CYPSE ([9]; 0.250 kg/ha): 0.0 | Herbicidal effect rating, CYPSE ([9]; 0.500 kg/ha): 0.0 | Herbicidal effect rating, SAGPY (SAGITTARIA PYGMAEA, L.; 0.063 kg/ha): 0.0 | Herbicidal effect rating, SAGPY (SAGITTARIA PYGMAEA, L.; 0.125 kg/ha): 0.0 | Herbicidal effect rating, SAGPY (SAGITTARIA PYGMAEA, L.; 0.250 kg/ha): 0.0 | Herbicidal effect rating, SAGPY (SAGITTARIA PYGMAEA, L.; 0.500 kg/ha): 0.0 | Herbicidal effect rating, ORYSAT ([10]; 0.063 kg/ha): 0.0 | Herbicidal effect rating, ORYSAT ([10]; 0.125 kg/ha): 0.0 | Herbicidal effect rating, ORYSAT ([10]; 0.250 kg/ha): 0.0 | Herbicidal effect rating, ORYSAT ([10]; 0.500 kg/ha): 0.0
